{"source": "patent US11926645B2", "about": "“Compounds and methods for treatment of viral infections” (priority 2020, dated 2024)", "key": {"[1]": {"tested_on": "SARS-CoV-2-Nluc viruses", "test": "microbe, parasite or virus in culture", "format": "cell-based"}, "[2]": {"test": "Plasma stability", "details": "human"}, "[3]": {"tested_on": "SARS-CoV-2 CA/2020", "test": "microbe, parasite or virus in culture", "format": "cell-based", "details": "Severe acute respiratory syndrome coronavirus 2, Vero C1008"}, "[4]": {"test": "in vitro", "details": "hamster"}, "[5]": {"test": "in vitro", "format": "in vitro ADME", "details": "s9, pH 7.4", "protocol": "Duplicate aliquots of test compound or positive control substrate (GS-7340) were added to S9 stock diluted with 100 mM potassium phosphate buffer, pH 7.4, to obtain a protein concentration of 2.4 mg/mL. The S9 metabolic reactions were initiated by the addition of the substrates to the S9 reaction mixture to a final concentration of 2 μM. At 2, 12, 25, 45, 65 and 90 min, 25 μL aliquots of the reaction mixture were transferred to plates containing 225 μl of IS/Q solution. After quenching, the plates were centrifuged at 3000×g for 30 minutes, and 150 μl, aliquots of each supernatant were diluted with 150 μl, water. Aliquots (10 μL) of the diluted supernatant were analyzed on a Thermo Q-Exactive mass spectrometer as described below.\nQuantification of test compounds and controls was performed by analyte/internal standard peak area ratio (PAR) values measured on a Thermo Q-Exactive mass spectrometer coupled to a Dionex UltiMate 3000 HPLC with a Leap Technologies HTC PAL autosampler. The column used was a Thermo Hypersil GOLD (1.9 μm particle size, 2.1×50 mm). Mobile phase A consisted of 0.1% (v/v) formic acid in water. Mobile phase B consisted of 0.1% (v/v) formic acid in acetonitrile. Elution of analytes was achieved by a series of linear gradients of acetonitrile in water containing 0.1% (v/v) formic acid. The mass spectrometer was calibrated on a weekly basis and mass tolerance of 5 ppm was used."}, "[6]": {"target": "T1, CES1 (Homo sapiens, UniProt P23141)", "T1 construct": "purchased", "T1 sequence (P23141 18-567)": "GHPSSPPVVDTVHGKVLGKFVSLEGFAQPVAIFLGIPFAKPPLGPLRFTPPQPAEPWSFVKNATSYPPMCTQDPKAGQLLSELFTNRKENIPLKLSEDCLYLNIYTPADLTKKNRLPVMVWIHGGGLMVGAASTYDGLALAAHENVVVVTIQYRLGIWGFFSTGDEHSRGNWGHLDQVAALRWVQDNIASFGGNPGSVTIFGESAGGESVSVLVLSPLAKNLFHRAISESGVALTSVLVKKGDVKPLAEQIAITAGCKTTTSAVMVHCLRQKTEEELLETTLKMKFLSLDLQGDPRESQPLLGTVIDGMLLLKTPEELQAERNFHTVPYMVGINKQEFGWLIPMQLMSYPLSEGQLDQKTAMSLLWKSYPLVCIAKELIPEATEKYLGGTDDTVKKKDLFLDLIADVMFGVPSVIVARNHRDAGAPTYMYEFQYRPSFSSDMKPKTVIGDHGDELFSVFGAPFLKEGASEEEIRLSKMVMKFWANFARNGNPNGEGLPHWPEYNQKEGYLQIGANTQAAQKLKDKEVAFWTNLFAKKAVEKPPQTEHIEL", "test": "CES1/2 stability, CES1", "format": "in vitro ADME", "details": "CES1 Supersome preparation; Supersome preparations, CES 1.5 mg/ml, 2 μM substrate, pH 7.4, 37° C.; read-out: CES1 T1/2", "protocol": "Test compounds or positive control substrates (oseltamivir for CES1 enzymes or procaine for CES2) were incubated with individual Supersome preparations (final CES concentration 1.5 mg/ml) in 0.1 M potassium phosphate buffer (pH 7.4) at 37° C. Substrates were added to a final concentration of 2 μM to initiate the reaction. The final incubation volume was 250 μL. Aliquots were removed after incubation for 0, 10, 30, 60 and 120 min. The reactions were stopped by the addition of IS/Q. Following protein precipitation and centrifugation, 150 μL of supernatant was diluted with an equal volume of water prior to LC-MS analysis. For procaine 150 μL of supernatant was dried down and reconstituted with 250 μL water. All samples were analyzed by LC-MS and the PAR values were used for quantification."}, "[7]": {"tested_on": "SARS-CoV-2 hCoV-19/Japan/TY7-503/2021 (BZ/2021)", "format": "in vivo"}}, "note": "Read-outs that look alike come from different tables or passages of the source.", "data": [{"smiles": "CC(C)C(=O)OC[C@H]1O[C@@](C#N)(c2ccc3c(N)ncnn23)[C@H](OC(=O)C(C)C)[C@@H]1OC(=O)C(C)C", "note": "[Compound 1, (2R,3R,4R,5R)-2-(4-aminopyrrolo[2,1-f][1,2,4]triazin-7-yl)-2-cyano-5-((isobutyryloxy)methyl)tetrahydrofuran-3,4-diyl bis(2-methylpropanoate)]", "values": [{"measurement": "EC50", "setting": "[1]; Severe acute respiratory syndrome coronavirus 2, 48 h, read-out: SARS-CoV2 EC50", "result": 2700, "unit": "nM"}, {"measurement": "EC50", "setting": "[1]; Severe acute respiratory syndrome coronavirus 2, host cells A549-ACE2, read-out: EC50, WA1/2020-nano luciferase", "result": 980, "unit": "nM"}, {"measurement": "half-life at 2 μM", "setting": "[2]", "result": 5.5, "unit": "min"}, {"measurement": "EC50", "setting": "[3]", "result": 210, "unit": "nM"}, {"measurement": "CC50", "setting": "[4]", "result": "> 100000", "unit": "nM"}, {"measurement": "half-life at 2 μM", "setting": "[5]", "result": 2, "unit": "min"}, {"measurement": "half-life at 2 μM", "setting": "[6]", "result": "< 1", "unit": "min"}, {"measurement": "Infectious viral particles in nasal turbinates of contact animals", "setting": "[7]; […], 5.5 days after initiation of co-housing", "result": "absent"}, {"measurement": "Shedding of infectious particles or viral RNA by contacts of treated source ferrets", "setting": "[7]; […], source animals oral 10 mg/kg b.i.d.", "result": "None of the contacts of treated source ferrets shed infectious particles or viral RNA at any time"}, {"measurement": "Viral RNA in nasal turbinates of the contact animals", "setting": "[7]; in vivo", "result": "< 10^5 copies/g nasal turbinate"}, {"measurement": "Lowering of viral RNA copies in nasal lavages and turbinates", "setting": "[7]; in vivo, po, 10 mg/kg", "result": "over three orders of magnitude"}, {"measurement": "Shed virus burden (nasal lavage)", "setting": "[7]; in vivo, po, 10 mg/kg", "result": "undetectable"}, {"measurement": "Tissue titers (nasal turbinates)", "setting": "[7]; in vivo, po, 10 mg/kg", "result": "undetectable"}]}]}
